The text below walks through data of patent US20060018951A1, “pH-responsive film for intravaginal delivery of a beneficial agent” (SRI International, priority 2003, published 2006).

The experiment has as its system sperm. Description: Sperm motility assay. Type of experiment: cell-based, Sprague-Dawley rats. The protocol: Male Sprague-Dawley-rats, between the ages of 16-22 weeks, were used for this study. Following anesthesia, both testes were removed and the epididymides were collected, rinsed in warm Dulbecco's phosphate buffered saline (37° C.), and placed in a petri dish containing approximately 10 mL warm MHF-10 (37° C.). The epididymides were minced with scissors to release sperm. Pipette sperm suspension into a 50 mL plastic centrifuge tube with a screw cap. Dilute sperm with additional MHF-10 (approximately 5-12 mL) to form a milky suspension. The initial percentage of motile sperm must be at least 70% for a valid assay, and is determined by inoculating 200 μL sperm suspension into 0.8 mL MHF-10 and counting motile versus nonmotile sperm. After the test article concentrations equilibrated in a 36° to 37° C. incubator for at least 30 minutes, 200 μL aliquots of the sperm suspension were added to the 0.8 mL test compound concentrations, two at a time, at 5 minute intervals, beginning with the highest concentration and proceeding to in order to the lowest concentration, then ending with vehicle and positive controls. The final volume was 1 mL per test compound concentration. Motility was assessed using a microscope. 50-μL aliquots of the test concentration, containing sperm, were added to the wells of preheated glass slides and covered with preheated glass coverslips. Pipette tips, slides, and coverslips were maintained at 36-37° C. on a warming plate. Motility was assessed at the appropriate exposure times, generally 20 and 40 min after addition of sperm to the test concentration. The degrees of motility of≧200 sperm per concentration per time point were evaluated as either not motile (0), incipiently motile (quivering/pulsing/wiggling) (1), slowly motile (2), or rapidly motile (3). Criteria for a Valid Assay. […] Percent motility in the tables below is calculated as (Prog. Motile)/Total (Prog.+Incip.+Non)×100.

[1] abbreviates: Experiment B, 1 min, film 49.1-50 mg, N9 amount not given, sperm count.
Setting [2] is: Experiment B, 15 min, film 49.1-50 mg, N9 amount not given, sperm count.
The mark [3] stands for this setting: Experiment B, 30 min, film 49.1-50 mg, N9 amount not given, sperm count.
Setting [4] is: Experiment C, 1 min, Nos 5-8: films 49.9-51.0 mg, N9 amount not given, sperm count.
Setting [5] is: Experiment C, 15 min, Nos 5-8: films 49.9-51.0 mg, N9 amount not given, sperm count.
Setting [6] is: Experiment C, 30 min, Nos 5-8: films 49.9-51.0 mg, N9 amount not given, sperm count.
Where [7] appears, read: Experiment D, 1 min, films 50-50.09 mg, N9 amount not given, sperm count.
[8] abbreviates: Experiment D, 15 min, films 50-50.09 mg, N9 amount not given, sperm count.
Setting [9] is: Experiment D, 30 min, films 50-50.09 mg, N9 amount not given, sperm count.
Where [10] appears, read: first sperm study (T8), 1 min, films 4.3-19.8 mg, sperm count.
Where [11] appears, read: first sperm study (T8), 15 min, films 4.3-19.8 mg, sperm count.
The mark [12] stands for this setting: first sperm study (T8), 30 min, films 4.3-19.8 mg, sperm count.

“nonylphenoxypolyethoxy ethanol [Formulation N-9]”: the “% Motility” value by setting is: (Experiment B, 1 min, film 49.1-50 mg, N9 amount not given) 0%; (Experiment B, 15 min, film 49.1-50 mg, N9 amount not given) 0%; (Experiment B, 30 min, film 49.1-50 mg, N9 amount not given) 0%; (Experiment C, 1 min, Nos 5-8: films 49.9-51.0 mg, N9 amount not given) 0%; (Experiment D, 1 min, films 50-50.09 mg, N9 amount not given) 0%; (Experiment D, 15 min, films 50-50.09 mg, N9 amount not given) 0%. Also, the “% Motility” value is, setting by setting: (Experiment D, 30 min, films 50-50.09 mg, N9 amount not given) 0%; (first sperm study (T8), 1 min, films 4.3-19.8 mg) 0%; (first sperm study (T8), 15 min, films 4.3-19.8 mg) 0%; (first sperm study (T8), 30 min, films 4.3-19.8 mg) 0%. In addition, the Incip.Mot is given as 0 under setting [1]; 0 under setting [2]; 0 under setting [3]; 0 under setting [4]; 0 under setting [5]; 0 under setting [6]. This compound displayed an Incip.Mot under setting [7] of 0; an Incip.Mot under setting [8] of 0; an Incip.Mot under setting [9] of 0; an Incip.Mot under setting [10] of 0; an Incip.Mot under setting [11] of 0; an Incip.Mot under setting [12] of 0. Also, the Non-Mot under setting [1] turned out to be 200; the Non-Mot under setting [2] worked out at 200; the Non-Mot under setting [3] is on record as 200; the Non-Mot under setting [4] was found to be 200; the Non-Mot under setting [5] is reported as 200; the Non-Mot under setting [6] was found to be 200. Moreover, the Non-Mot reads like this: under setting [7], 200; under setting [8], 200; under setting [10], 100. Also, the Prog.-Mot under setting [1] amounted to 0. The Prog.Mot is 0 under setting [3], 0 under setting [7] and 0 under setting [8]. Further, under setting [4], the Prog-Mot amounted to 0. Also, the Total is, setting by setting: (Experiment C, 15 min, Nos 5-8: films 49.9-51.0 mg, N9 amount not given) 0; (Experiment C, 30 min, Nos 5-8: films 49.9-51.0 mg, N9 amount not given) 0. Besides, the Mot came out at 0 under setting [5], 0 under setting [6] and 0 under setting [9]. In addition, the Non-Motile runs as follows: under setting [11], 100; under setting [12], 100. Moreover, the Prog-Motile reads like this: under setting [11], 0; under setting [12], 0.

`CC(O)C(=O)O` (centres unmarked) [Lactic Acid 4%, Lactic Acid]: the Non-Mot by setting is: (Experiment B, 1 min, 100 μl solution, sperm count) 103; (Experiment B, 1 min, 200 μl solution, sperm count) 200.
